# Measurements from patent publication US20260183405A1, “SMALL MOLECULE-DRUG-CONJUGATES CLEAVABLE IN A TUMOR MICROENVIRONMENT” (priority 2022, published 2026).
# Read-outs that look alike come from different tables or passages of the source.
# Assays:
# in vitro = details: human, Caco-2
# Method: (§1) Caco-2: The cell permeability of a substance can be investigated by means of in vitro testing in a flux assay using Caco-2 cells [M. D. Troutman and D. R. Thakker, Pharm. Res. 20 (8), 1210-1224 (2003)]. For this purpose, the cells were cultured for 15-16 days on 24-well filter plates. For the determination of permeation, the respective test substance was applied in a HEPES buffer to the cells either apically (A) or basally (B) and incubated for 2 hours. After 0 hours and after 2 hours, samples were taken from the cis and trans compartments. The samples were separated by HPLC (Agilent 1200, Böblingen, Germany) using reverse phase columns. The HPLC system was coupled via a Turbo Ion Spray Interface to a Triple Quadropol mass spectrometer API 4000 (AB SCIEX Deutschland GmbH, Darmstadt, Germany). The permeability was evaluated on the basis of a Papp value, which was calculated using the formula published by Schwab et al. [D. Schwab et al., J. Med. Chem. 46, 1716-1725 (2003)]. A substance was classified as actively transported when the ratio of Papp (B-A) to Papp (A-B) (efflux ratio) was >2 or <0.5. […] In Table 2, reference compounds are provided for comparison.
# [1] = Pharmacokinetics in rat after intravenous administration; type: in vivo; details: plasma, male rats, intravenous bolus 0.5 mg/kg
# Method: Male rats (n=3) were given an intravenous 0.5 mg/kg bolus dose of test article dissolved in plasma with 1% DMSO and 2% ethanol. Serial blood samples were collected up to 24 hours post-dose. Plasma was harvested from blood samples and stored frozen until sample analysis. Test article plasma concentrations were analyzed by LC/MS/MS. Pharmacokinetic parameters were calculated using non-compartmental analysis.
# 786-O = experiment: Cytotoxicity in vitro in the presence and absence of elastase (MTT assay); type: cell-based; details: 786-O cells, 72 h incubation
# Method: (§2) Cultivation of cells was performed according to standard procedures with the media recommended by the provider. The cells, in a total volume of 100 μL, were seeded in a 96-well plate with a white bottom (#3610). After a 24 h incubation period at 37° C. and 5% CO2, the medium was exchanged by adding 90 μL fresh medium. The treatment started by adding the test compound in 10 μL of culture medium to the cells in triplicates. Concentrations ranging from 10^−5 M to 10^−13 M were chosen. Two identically treated sets of samples were prepared. One set was treated with the test compound alone, whereas to the second set the compound and 10 nM elastase (NE) was added followed by a 72 h incubation period at 37° C. and 5% CO2. The proliferation was detected using the MTT assay (ATCC). At the end of the incubation period the MTT reagent was added to all samples for 4h. Lysis of the cells followed by addition of the detergent was done overnight. The formed dye was detected at 570 nm. The proliferation of untreated but otherwise identically handled cells was defined as the 100% value. The dose response curves allowed the determination of the respective IC50 values. […]
# NCI-H292 = experiment: as above; type: cell-based; details: NCI-H292 cells, 72 h incubation
# Method: as §2
# SUM149PT = experiment: as above; type: cell-based; details: SUM149PT cells, 72 h incubation
# Method: as §2
# HT29 = experiment: as above; type: cell-based; details: HT29 cells, 72 h incubation
# Method: as §2
# Caco-2 cells = experiment: Caco-2 flux assay for cellular permeability; details: for Caco-2 Flux Papp A-B [nm/s]: Caco-2 cells, apical to basal, 2 hours incubation; for Caco-2 Flux Efflux ratio: ratio Papp (B-A) to Papp (A-B), actively transported when >2 or <0.5, 0.5-2 not actively transported
# Method: as §1
# [2] = compound alone, read-out: IC50 without neutrophil elastase
# [3] = with 10 nM elastase (NE), read-out: IC50 with neutrophil elastase
Compound,Papp A→B at 2 h (in vitro),efflux ratio at 2 h (in vitro),IC50 (786-O; [2]),IC50 (786-O; [3]),IC50 (NCI-H292; [2]),IC50 (NCI-H292; [3]),IC50 (SUM149PT; [2]),IC50 (SUM149PT; [3]),IC50 (HT29; [2]),IC50 (HT29; [3]),further results
COC(=O)[C@@H](N)CCN(C(=O)CO)[C@@H](c1cc(-c2cc(F)ccc2F)cn1Cc1ccccc1)C(C)(C)C,1 to 9.9 ×10⁻⁶ cm/s,> 2,–,–,–,–,–,–,–,–,–
CCCNC(=O)Nc1cccc(S(=O)(=O)Nc2cccc([C@@H](CC(=O)O)NC(=O)Nc3ccc(NC(=O)NCCOCCOCCOCCC(=O)NCCCC[C@H](NC(=O)CCOCCOCCOCCNC(=O)Nc4ccc(NC(=O)N[C@H](CC(=O)O)c5cccc(NS(=O)(=O)c6cccc(NC(=O)NCCC)c6)c5)cc4)C(=O)NCCOCCOCCOCCC(=O)N[C@@H](CC(=O)O)C(=O)N4CCC[C@H]4C(=O)N[C@H](C(=O)O[C@@H](c4ccccc4)[C@@H](C)NC(=O)[C@H](C)[C@@H](OC)[C@@H]4CCCN4C(=O)C[C@@H](OC)[C@H]([C@@H](C)CC)N(C)C(=O)[C@@H](NC(=O)[C@@H](NC)C(C)C)C(C)C)C(C)C)cc3)c2)c1 [Compound 14],–,–,100 to 999 nM,1 to 9.9 nM,10 to 99 nM,0.1 to 1 nM,10 to 99 nM,0.1 to 1 nM,100 to 999 nM,0.1 to 1 nM,AUC [1]: 100 to 500 µg·h/mL; half-life [1]: 10 to 40 h; clearance ([1]; read-out: CL plasma): 0.02 to 0.5 mL/min/kg; Vd ([1]; read-out: VSS): 0.1 to 0.3 L/kg
"exatecan mesylate [Ref 1, reference compound]",–,–,–,–,–,–,–,–,–,–,Caco-2 Flux Papp A-B [nm/s] (Caco-2 cells): CC (CC = 100-999 nm/s); Caco-2 Flux Efflux ratio (Caco-2 cells): B (B = not actively transported)
CC(C)(C)[C@H](c1cc(-c2cc(F)ccc2F)cn1Cc1ccccc1)N(CCC(N)C(F)F)C(=O)CO (stereo partly drawn),10 to 99.9 ×10⁻⁶ cm/s,0.5 to 2,–,–,–,–,–,–,–,–,–
CCc1c2c(nc3ccccc13)-c1cc3c(c(=O)n1C2)COC(=O)[C@]3(O)CC,10 to 99.9 ×10⁻⁶ cm/s,0.5 to 2,–,–,–,–,–,–,–,–,–
"CC[C@@]1(OC(=O)[C@@H](NC(=O)[C@@H]2CCCN2C(=O)[C@H](CC(=O)O)NC(=O)CCOCCOCCOCCNC(=O)NCCCC[C@H](NC(=O)N[C@@H](CCC(=O)O)C(=O)O)C(=O)O)C(C)C)C(=O)OCc2c1cc1n(c2=O)Cc2c-1nc1cc(F)c(C)c3c1c2[C@@H](N)CC3 [Compound 11, tetrasodium (1S,9S)-1-amino-9-ethyl-5-fluoro-4-methyl-10,13-dioxo-2,3,9,10,13,15-hexahydro-1H,12H-benzo[de]pyrano[3′,4′:6,7]indolizino[1,2-b]quinolin-9-yl 1-[(2S,23S,27S)-23,27,29-tricarboxylato-2-(carboxylatomethyl)-4,17,25-trioxo-7,10,13-trioxa-3,16,18,24,26-pentaazanonacosanan-1-oyl]-L-prolyl-L-valinate]",–,–,100 to 999 nM,1 to 9.9 nM,100 to 999 nM,1 to 9.9 nM,100 to 999 nM,1 to 9.9 nM,> 1000 nM,10 to 99 nM,–
CC(C)(C)[C@H](c1cc(-c2cc(F)ccc2F)cn1Cc1ccccc1)N(CCCN)C(=O)CO,0.1 to 0.9 ×10⁻⁶ cm/s,> 2,–,–,–,–,–,–,–,–,–
"CC[C@@]1(O)C(=O)OCc2c1cc1n(c2=O)Cc2cc3cc4c(cc3nc2-1)OCO4 [Ref 3, 10,11-methylenedioxy-camptothecin, reference compound]",–,–,–,–,–,–,–,–,–,–,Caco-2 Flux Papp A-B [nm/s] (Caco-2 cells): CC (CC = 100-999 nm/s); Caco-2 Flux Efflux ratio (Caco-2 cells): B (B = not actively transported)
"CC[C@@]1(OC(=O)[C@@H](NC(=O)[C@@H]2CCCN2C(=O)[C@H](CC(=O)O)NC(=O)CCOCCOCCOCCNC(=O)CCC(=O)Nc2nnc(S(N)(=O)=O)s2)C(C)C)C(=O)OCc2c1cc1n(c2=O)Cc2c-1nc1cc(F)c(C)c3c1c2[C@@H](N)CC3 [Compound 12, sodium (1S,9S)-1-amino-9-ethyl-5-fluoro-4-methyl-10,13-dioxo-2,3,9,10,13,15-hexahydro-1H,12H-benzo[de]pyrano[3′,4′:6,7]indolizino[1,2-b]quinolin-9-yl 1-{(2S)-2-(carboxylatomethyl)-4,17,20-trioxo-20-[(5-sulfamoyl-1,3,4-thiadiazol-2-yl)amino]-7,10,13-trioxa-3,16-diazaicosanan-1-oyl}-L-prolyl-L-valinate]",–,–,100 to 999 nM,1 to 9.9 nM,100 to 999 nM,1 to 9.9 nM,100 to 999 nM,1 to 9.9 nM,> 1000 nM,10 to 99 nM,–
"CC[C@@]1(O)C(=O)OCc2c1cc1n(c2=O)Cc2c-1nc1cc(F)c(C)c3c1c2[C@@H](NC(=O)CO)CC3 [Ref 2, DXd, reference compound]",–,–,–,–,–,–,–,–,–,–,Caco-2 Flux Papp A-B [nm/s] (Caco-2 cells): AA (AA = 1-9 nm/s); Caco-2 Flux Efflux ratio (Caco-2 cells): A (A = actively transported)
CCCNC(=O)Nc1cccc(S(=O)(=O)Nc2cccc([C@@H](CC(=O)O)NC(=O)Nc3ccc(NC(=O)NCCOCCOCCOCCC(=O)N[C@@H](CC(=O)O)C(=O)N4CCC[C@H]4C(=O)N[C@H](C(=O)OCCCNC(=O)[C@H](Cc4ccccc4)NC(=O)[C@H](C)[C@@H](OC)[C@@H]4CCCN4C(=O)C[C@@H](OC)[C@H]([C@@H](C)CC)N(C)C(=O)[C@@H](NC(=O)[C@H](C(C)C)N(C)C)C(C)C)C(C)C)cc3)c2)c1 [Compound 30],–,–,100 to 999 nM,10 to 99 nM,10 to 99 nM,1 to 9.9 nM,10 to 99 nM,1 to 9.9 nM,100 to 999 nM,1 to 9.9 nM,–
"CCc1c2c(nc3ccccc13)-c1cc3c(c(=O)n1C2)COC(=O)[C@@]3(CC)OC(=O)[C@@H](NC(=O)[C@@H]1CCCN1C(=O)[C@H](CC(=O)O)NC(=O)CCOCCOCCOCCNC(=O)NC[C@H](NC(=O)CCCCNc1cc(C)ccn1)C(=O)N[C@@H](CC(=O)O)c1cc(Cl)cc(Cl)c1)C(C)C [Compound 29, disodium (4S)-4,11-diethyl-3,14-dioxo-3,4,12,14-tetrahydro-1H-pyrano[3′,4′:6,7]indolizino[1,2-b]quinolin-4-yl 1-{(2S,20S)-20-{[(1S)-2-carboxylato-1-(3,5-dichlorophenyl)ethyl]carbamoyl}-2-(carboxylatomethyl)-26-[(4-methylpyridin-2-yl)amino]-4,17,22-trioxo-7,10,13-trioxa-3,16,18,21-tetraazahexacosanan-1-oyl}-L-prolyl-L-valinate]",–,–,100 to 999 nM,1 to 9.9 nM,100 to 999 nM,1 to 9.9 nM,100 to 999 nM,1 to 9.9 nM,> 1000 nM,10 to 99 nM,–
CCCNC(=O)Nc1cccc(S(=O)(=O)Nc2cccc([C@@H](CC(=O)O)NC(=O)Nc3ccc(NC(=O)NCCOCCOCCOCCC(=O)N[C@@H](CC(=O)O)C(=O)N4CCC[C@H]4C(=O)N[C@H](C(=O)NCCC(C)(C)C(=O)OCCCNC(=O)[C@H](Cc4ccccc4)NC(=O)[C@H](C)[C@@H](OC)[C@@H]4CCCN4C(=O)C[C@@H](OC)[C@H]([C@@H](C)CC)N(C)C(=O)[C@@H](NC(=O)[C@H](C(C)C)N(C)C)C(C)C)C(C)C)cc3)c2)c1 [Compound 31],–,–,100 to 999 nM,10 to 99 nM,10 to 99 nM,0.1 to 1 nM,10 to 99 nM,0.1 to 1 nM,10 to 99 nM,0.1 to 1 nM,–
